Data set [1] can be described thus: Prodrug conversion in C57BL/6 mouse plasma assessed as AUC(0 to 24 hrs) of TFV metabolite at 10 mg/kg, po measured up to 24 hrs by LC-MS/MS analysis. It is filed as ADME, organism-based. Details: time < 24 hrs, dose 10 mg/kg, route po. To be noted: in vivo.
Data set [2] in a line: Ratio of prodrug AUC(0 to 24 hrs) to TFV AUC(0 to 24 hrs) in C57BL/6 mouse plasma at 10 mg/kg, po measured up to 24 hrs by LC-MS/MS analysis. Type of data set: ADME, organism-based. To be noted: in vivo.
Data set [3] in a line: Tmax in C57BL/6 mouse liver at 10 mg/kg, po measured up to 24 hrs by LC-MS/MS analysis. It is filed as ADME, organism-based. To be noted: mouse, in vivo, po, 10 mg/kg, 24 h.
A short description of data set [4]: Cmax in C57BL/6 mouse liver at 10 mg/kg, po measured up to 24 hrs by LC-MS/MS analysis. Details: time < 24 hrs, dose 10 mg/kg, route po. The conditions noted are these: in vivo. It is filed as ADME, organism-based.
The nature of data set [5]: AUC(0 to 24 hrs) in C57BL/6 mouse liver at 10 mg/kg, po measured up to 24 hrs by LC-MS/MS analysis. It is filed as ADME, organism-based. Also on record: time < 24 hrs, dose 10 mg/kg, route po. The conditions noted are these: in vivo.
Data set [6] is described as follows: Prodrug conversion in C57BL/6 mouse liver assessed as AUC(0 to 24 hrs) of TFV metabolite at 10 mg/kg, po measured up to 24 hrs by LC-MS/MS analysis. To be noted: in vivo. Details: time < 24 hrs, dose 10 mg/kg, route po. It is filed as ADME, organism-based.
Data set [7] is described as follows: Prodrug conversion in C57BL/6 mouse liver assessed as Cmax of TFV metabolite at 10 mg/kg, po measured up to 24 hrs by LC-MS/MS analysis. It is filed as ADME, organism-based. Also on record: dose 10 mg/kg, time < 24 hrs, route po. The conditions noted are these: in vivo.
Data set [8] in a line: Tmax in C57BL/6 mouse plasma at 10 mg/kg, po measured up to 24 hrs by LC-MS/MS analysis. To be noted: in vivo. It is filed as ADME, organism-based.
A short description of data set [9]: Cmax in C57BL/6 mouse plasma at 10 mg/kg, po measured up to 24 hrs by LC-MS/MS analysis. It is filed as ADME, organism-based. Also on record: dose 10 mg/kg, time < 24 hrs, route po. The conditions noted are these: in vivo.
Data set [10] is described as follows: AUC(0 to 24 hrs) in C57BL/6 mouse plasma at 10 mg/kg, po measured up to 24 hrs by LC-MS/MS analysis. Type of data set: ADME, organism-based. Also on record: time < 24 hrs, dose 10 mg/kg, route po. To be noted: in vivo.
Data set [11] can be described thus: Half life in C57BL/6 mouse plasma at 10 mg/kg, po measured up to 24 hrs by LC-MS/MS analysis. To be noted: in vivo. It is filed as ADME, organism-based.
The nature of data set [12]: Prodrug conversion in C57BL/6 mouse plasma assessed as Tmax of TFV metabolite at 10 mg/kg, po measured up to 24 hrs by LC-MS/MS analysis. It is filed as ADME, organism-based. The conditions noted are these: in vivo.
Data set [13] is described as follows: Prodrug conversion in C57BL/6 mouse plasma assessed as Cmax of TFV metabolite at 10 mg/kg, po measured up to 24 hrs by LC-MS/MS analysis. Details: time < 24 hrs, dose 10 mg/kg, route po. It is filed as ADME, organism-based. The conditions noted are these: in vivo.
Data set [14] in a line: Therapeutic index, ratio of CC50 for cytotoxicity against HEK293T cells to IC50 for antiviral activity against human immunodeficiency virus expressed in HEK293T cells. Type of data set: toxicity, cell-based. To be noted: read-out: Ratio CC50/IC50.
Another data set deals with HEK-293T. As to the kind of experiment: Cytotoxicity against HEK293T cells assessed as reduction in cell viability measured after 48 hrs by CellTiter 96 Aqueous One Solution reagent based cell proliferation assay. To be noted: human.
A short description of data set [15]: Prodrug conversion in C57BL/6 mouse liver assessed as Tmax of TFV metabolite at 10 mg/kg, po measured up to 24 hrs by LC-MS/MS analysis. It is filed as ADME, organism-based. To be noted: in vivo.
A short description of data set [16]: Metabolic stability in human liver microsomes assessed as half life at 3 uM measured up to 30 min in presence of NADPH by LC-MS/MS analysis. Type of data set: ADME, Microsome. The conditions noted are these: 0.5 h. (In general: Liver microsomes are vesicles of endoplasmic reticulum, rich in cytochrome P450 enzymes.)
The nature of data set [17]: Ratio of prodrug AUC(0 to 24 hrs) to TFV AUC(0 to 24 hrs) in C57BL/6 mouse liver at 10 mg/kg, po measured up to 24 hrs by LC-MS/MS analysis. The conditions noted are these: in vivo. Type of data set: ADME, organism-based.
Data set [18] can be described thus: Plasma protein binding in C57BL/6 mouse at 10 mg/kg, po measured up to 24 hrs by LC-MS/MS. The conditions noted are these: read-out: PPB. It is filed as ADME, organism-based.
A short description of data set [19]: Cmax in HBV patients at 50 mg, po qa administered for 28 days. Type of data set: ADME, organism-based. Details: dose 50 mg, time 28 day, route po. To be noted: human, in vivo.
A short description of data set [20]: Tmax in HBV patients at 50 mg, po qa administered for 28 days. Type of data set: ADME, organism-based. To be noted: human, in vivo, time 28 day.
Data set [21] is described as follows: AUC(0 to 24 hrs) in HBV patients at 50 mg, po qa administered for 28 days. Details: time 28 day, dose 50 mg, route po. Type of data set: ADME, organism-based. To be noted: human, in vivo.
Data set [22] is described as follows: Half life in HBV patients at 50 mg, po qa administered for 28 days. To be noted: human, in vivo, time 28 day. Type of data set: ADME, organism-based.
Data set [23] in a line: Prodrug conversion in […] patients assessed as Cmax of TFV metabolite at 50 mg, po qa administered for 28 days. Details: time 28 day, dose 50 mg, route po. The conditions noted are these: human, in vivo, 672 h. Type of data set: ADME, organism-based.
Data set [24] can be described thus: Prodrug conversion in […] patients assessed as AUC(0 to 24 hrs) of TFV metabolite at 50 mg, po qa administered for 28 days. It is filed as ADME, organism-based. The conditions noted are these: human, in vivo, 672 h. Details: time 28 day, dose 50 mg, route po.
Data set [25] deals with Human immunodeficiency virus. Put plainly: Potency index, ratio of TFV IC50 to TXL IC50 for antiviral activity against human immunodeficiency virus expressed in HEK293T cells coexpressing firefly luciferase gene incubated for 48 hrs by Bright-Glo luciferase assay. It is filed as functional.
For a further data set, the target named is Cytochrome P450 2D6 (Homo sapiens, UniProt P10635). As to the kind of experiment: Inhibition of human recombinant CYP2D6 expressed in insect microsome using (3-[2-([…]-N-methylammonium)-ethyl]-7-methoxy-4-methylcoumarin iodide as a substrate incubated for 30 mins followed by addition of NADPH regenerating system measured immediately by fluorescence based analysis. It is filed as ADME, microsomes.

The next data set deals with Cytochrome P450 3A4 (Homo sapiens, UniProt P08684). Put plainly: Inhibition of human recombinant CYP3A4 expressed in insect microsome using 7-benzyloxy-4-trifluoromethylcoumarin as a substrate incubated for 30 mins followed by addition of NADPH regenerating system measured immediately by fluorescence based analysis. Type of data set: ADME, microsomes.
The subject of data set [26] is Human immunodeficiency virus. Put plainly: Antiviral activity against human immunodeficiency virus expressed in HEK293T cells coexpressing firefly luciferase gene incubated for 48 hrs by Bright-Glo luciferase assay. Type of data set: functional, organism-based. The conditions noted are these: Human immunodeficiency virus 1, HEK-293T.
In data set [27] the test system is Human immunodeficiency virus. As to the kind of experiment: Potency index, ratio of test compound IC50 to TXL IC50 for antiviral activity against human immunodeficiency virus expressed in HEK293T cells coexpressing firefly luciferase gene incubated for 48 hrs by Bright-Glo luciferase assay. It is filed as functional.
Data set [28] can be described thus: Ratio of test compound t1/2 to TXL t1/2 for metabolic stability in human liver microsomes assessed as half life at 3 uM measured up to 30 min in presence of NADPH by LC-MS/MS analysis. Type of data set: ADME, Microsome. To be noted: 0.5 h.

Where only a bound is given, the exact number is not on record here.

Sequence of Cytochrome P450 3A4 (P08684 whole entry): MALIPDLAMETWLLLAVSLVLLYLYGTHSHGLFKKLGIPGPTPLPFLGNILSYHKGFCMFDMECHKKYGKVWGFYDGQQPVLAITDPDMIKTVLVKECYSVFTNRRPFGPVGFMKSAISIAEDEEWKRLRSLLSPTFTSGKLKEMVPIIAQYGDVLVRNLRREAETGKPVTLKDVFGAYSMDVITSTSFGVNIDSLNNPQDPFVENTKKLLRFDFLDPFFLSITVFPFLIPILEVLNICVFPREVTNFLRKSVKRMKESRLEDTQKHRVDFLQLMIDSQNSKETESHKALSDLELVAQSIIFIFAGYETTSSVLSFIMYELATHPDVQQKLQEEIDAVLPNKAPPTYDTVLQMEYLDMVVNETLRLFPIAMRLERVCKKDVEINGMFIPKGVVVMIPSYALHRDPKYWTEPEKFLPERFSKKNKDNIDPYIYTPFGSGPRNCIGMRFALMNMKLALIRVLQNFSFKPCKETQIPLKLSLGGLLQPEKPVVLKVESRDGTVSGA
Sequence of Cytochrome P450 2D6 (P10635 whole entry): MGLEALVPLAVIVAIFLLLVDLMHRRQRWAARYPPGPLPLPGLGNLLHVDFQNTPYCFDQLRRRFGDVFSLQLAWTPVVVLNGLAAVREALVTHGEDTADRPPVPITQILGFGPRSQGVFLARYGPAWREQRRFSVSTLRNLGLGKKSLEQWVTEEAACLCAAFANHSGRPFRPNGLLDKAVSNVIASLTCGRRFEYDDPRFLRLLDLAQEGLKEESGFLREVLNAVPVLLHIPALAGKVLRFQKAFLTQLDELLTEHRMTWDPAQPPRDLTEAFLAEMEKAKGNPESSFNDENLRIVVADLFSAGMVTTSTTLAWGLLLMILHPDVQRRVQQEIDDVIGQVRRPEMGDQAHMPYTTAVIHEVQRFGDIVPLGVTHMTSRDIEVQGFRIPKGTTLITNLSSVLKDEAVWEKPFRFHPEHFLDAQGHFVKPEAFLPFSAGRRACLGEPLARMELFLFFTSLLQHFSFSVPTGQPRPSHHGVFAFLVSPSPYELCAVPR

As for `CCCCCCCCCCCCCCCCOCCCOP(=O)(O)CO[C@H](C)Cn1cnc2c(N)ncnc21.N`, the AUC was determined as 132 ng·h/mL in data set [1]; 4970 ng·h/mL in [5]; 26100 ng·h/mL in [6]; 301 ng·h/mL in data set [10]; 136 ng·h/mL in data set [24]. For the same compound, the “Ratio AUC” value in [2] is recorded as 2.29; in [17], 0.19. Moreover, the Tmax in data set [3] is 1 h; in [8] it was 1 h; in data set [12], 2 h; in [15] it was 17.3 h; in data set [20], 1.5 h. Besides, the Cmax in data set [4] came out at 2730 ng/mL; in [7], 1460 ng/mL; in data set [9] it was 125 ng/mL; in data set [13] it was 19.6 ng/mL; in data set [19], 51 ng/mL; in data set [23], 8.5 ng/mL. Also, the results for the t1/2 in [11] and in data set [16] were 2.92 h and 0.7 h, respectively. The selectivity ratio in data set [14] came to 5420. Further, the CC50 in the data set on HEK-293T worked out at 97.6 µM. In data set [18], the fraction unbound at 24 h is below 0.001. Also, the AUC at 672 h in data set [21] was found to be 110 ng·h/mL. The compound further gave a half-life in data set [22] of 1.5 h. In addition, the “Ratio IC50” value in data set [25] amounted to 89.

`CCCCCCCCCCCCCCCCCCCCOP(=O)(O)CO[C@H](C)Cn1cnc2c(N)ncnc21.N`: the selectivity ratio in data set [14] came out at 104. The CC50 in the data set on HEK-293T stood at 13.2 µM. The half-inhibitory concentration (IC50) on Cytochrome P450 2D6 was determined as 33.2 µM; on Cytochrome P450 3A4, 50 µM; in [26], 0.127 µM. Besides, in [27], the “Ratio IC50” value was found to be 7.

With `C#CCCCCCCCCCCCCCOP(=O)(O)CO[C@H](C)Cn1cnc2c(N)ncnc21.N`, the selectivity ratio in data set [14] is above 3. Also, the CC50 in the data set on HEK-293T was above 100 µM. For the same compound, the IC50 in [26] is 28.6 µM. Moreover, in [16], the t1/2 is 1.57 h. In [28], the Ratio result is “>= 3”.

A word on the AUC: it is the area under the concentration-time curve, a measure of exposure. What is called Tmax is the time at which the peak concentration occurs. As usually defined, the Cmax is the highest concentration seen after dosing. In general, CC50 refers to the concentration at which the toxic effect on the cells reaches its halfway point. By half-life is commonly meant the time needed for the level to fall by half in the phase considered. Lower therefore signals rapid decline. A word on the IC50: it is the concentration that inhibits the measured activity by half.

For the origin of these results see ChEMBL document CHEMBL5055639, “ω-Functionalized Lipid Prodrugs of HIV NtRTI Tenofovir with Enhanced Pharmacokinetic Properties” (J Med Chem, 2021).
